Read-outs that look alike come from different tables or passages of the source.
Experiments:
Bcl-w = target: T1, Bcl-w (Homo sapiens, UniProt Q92843); assay: Fluorescence polarization (FP) competition binding assay, Bcl-w
T1 construct: made in house
T1 sequence (Q92843 1-193): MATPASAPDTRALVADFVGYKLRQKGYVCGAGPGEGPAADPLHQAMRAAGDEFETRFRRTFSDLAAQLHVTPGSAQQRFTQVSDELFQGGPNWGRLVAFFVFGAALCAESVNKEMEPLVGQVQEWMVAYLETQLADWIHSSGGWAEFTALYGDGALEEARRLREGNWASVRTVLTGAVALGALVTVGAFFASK
Excerpt: (§1) With the stability improved, the mechanism of action of compound 1 was studied to determine whether compound 1 would retain the same mechanism of HA 14-1 as an antagonist against anti-apoptotic Bcl-2 proteins. Table 1 summarizes the binding interaction of compound 1 with three anti-apoptotic Bcl-2 proteins by following an established fluorescence polarization competition assay (see Doshi, J. M.; Tian, D.; Xing, C. J. Med. Chem. 2006, 49, 7731-7739).
(§2) To explore whether compound 3 functioned the same as HA 14-1 in inducing cell death, compound 3 was tested for its binding interactions with recombinant Bcl-2, Bcl-XL, and Bcl-w proteins. This was done by using the FP based competition binding assay (see below).
(§3) The binding interactions of the test compound with Bcl-2, Bcl-XL and Bcl-w proteins were evaluated using the respective recombinant proteins. The preparation of these recombinant Bcl-2 proteins and fluorescently labeled Bak peptide has been detailed previously (see Doshi, J. M.; Tian, D.; Xing, C. J. Med. Chem. 2006, 49, 7731). The assays were conducted via an optimized protocol established in the laboratory using a GENios Pro plate reader (Tecan US, NC) with all assays performed in triplicate, each assay performed twice (see Doshi, J. M.; Tian, D.; Xing, C. J. Med. Chem. 2006, 49, 7731).

[1] = system: Jurkat cells (normal, over-expressing Bcl-2, or over-expressing Bcl-XL); assay: In vitro cytotoxicity against three Jurkat cell lines (drug resistance); type: cell-based; conditions: Jurkat normal vs Bcl-2 or Bcl-XL over-expressing; FIG. 3, FIG. 7
Description: Compound 1 was further studied for its capability to overcome drug resistance induced by the over-expression of anti-apoptotic Bcl-2 proteins. Specifically, the in vitro cytotoxicity of compound 1 against three Jurkat cells (normal, over-expressing Bcl-2, or over-expressing Bcl-XL) were evaluated.
The ability of compound 3 to overcome the drug resistance induced by the over-expression of anti-apoptotic Bcl-2 proteins by evaluating its cytotoxicity in Bcl-2 or Bcl-XL over-expressing Jurkat cells was also evaluated.
The in vitro cytotoxicity of the test compound was assayed by determining the GI50s (the concentration of the compound required to inhibit cell growth by 50%). In brief, Jurkat cells at a density of 10^4 cells/well were plated in a 96-well plate. A series of 3-fold dilution of the test compound with 1% DMSO in the final cell media was used for the cell treatment (cells treated with media containing 1% DMSO served as a control). An identical set of the test compounds was incubated at 37° C. for the specified time and used along with freshly prepared samples for the cell-viability assay. […]

Jurkat cells [2] = assay: In vitro cytotoxicity assay (GI50) with fresh and incubated samples; type: cell-based; conditions: for increase of GI50 after incubation: 24-hour incubation in cell culture media at 37° C., FIG. 1; for loss of cytotoxicity after incubation: one hour incubation, FIG. 6
Description: Compound 1 (Example 2) was first evaluated for its stability under physiological conditions. In brief, compound 1 was incubated in cell culture media at 37° C. for 24 hours and the in vitro cytotoxicity was determined. HA 14-1 was run in parallel for comparison.
The stability of compound 3 (Example 1) was evaluated using the in vitro cytotoxicity assay described below.
The in vitro cytotoxicity of the test compound was assayed by determining the GI50s (the concentration of the compound required to inhibit cell growth by 50%). In brief, Jurkat cells at a density of 10^4 cells/well were plated in a 96-well plate. A series of 3-fold dilution of the test compound with 1% DMSO in the final cell media was used for the cell treatment (cells treated with media containing 1% DMSO served as a control). An identical set of the test compounds was incubated at 37° C. for the specified time and used along with freshly prepared samples for the cell-viability assay. After 24-hour treatment, the relative cell viability in each well was determined by using CellTiter-Blue Cell Viability Assay kit (a fluorescence assay that measures the reduction of a dye (resazurin) into a fluorescent end product (resorufin) by metabolically active cells—viable cells) (Promega, CA). The GI50 of each candidate was determined by fitting the relative viability of the cells to the drug concentration by using a dose-response model in GraphPad software.

Bcl-XL = target: T2, Bcl-XL (Homo sapiens, UniProt Q07817); assay: Fluorescence polarization (FP) competition binding assay, Bcl-XL
T2 construct: made in house
T2 sequence (Q07817 whole entry, species assumed): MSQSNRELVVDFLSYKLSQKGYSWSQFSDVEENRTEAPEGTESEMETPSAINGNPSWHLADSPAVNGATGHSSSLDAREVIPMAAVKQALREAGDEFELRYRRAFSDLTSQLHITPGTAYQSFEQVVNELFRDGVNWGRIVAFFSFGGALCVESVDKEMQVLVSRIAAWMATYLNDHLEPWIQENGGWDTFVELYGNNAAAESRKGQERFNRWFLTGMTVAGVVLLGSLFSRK
Excerpt: as §1, §2, §3

[3] = HPLC analysis of decomposition in cell culture media; type: physicochemical; conditions: 48-hour incubation in cell culture media at 37° C.
Jurkat cells [4] = assay: Sensitization of Jurkat cells to doxorubicin (combination cytotoxicity); type: cell-based; conditions: for synergism with doxorubicin: combination vs each alone, FIG. 4
Description: Finally, compound 1 was analyzed for its capability in sensitizing tumor cells to standard chemotherapies. As HA 14-1 was established to sensitize various tumor cells to doxorubicin, compound 1 was tested in parallel with HA 14-1 for the potential synergism to doxorubicin in Jurkat cells. Briefly, the cytotoxicity of doxorubicin alone, compound 1 alone, or the combination of both to Jurkat cells were evaluated. […] This study established that compound 1 can function as a chemosensitizer in combination cancer therapy. The synergism of compound 1 was further supported by the dose-response potentiation of doxorubicin (FIG. 5).

Bcl-2 = target: T3, Bcl-2 (Homo sapiens, UniProt P10415); assay: Fluorescence polarization (FP) competition binding assay, Bcl-2; conditions: Table 1
T3 construct: made in house
T3 sequence (P10415 whole entry, species assumed): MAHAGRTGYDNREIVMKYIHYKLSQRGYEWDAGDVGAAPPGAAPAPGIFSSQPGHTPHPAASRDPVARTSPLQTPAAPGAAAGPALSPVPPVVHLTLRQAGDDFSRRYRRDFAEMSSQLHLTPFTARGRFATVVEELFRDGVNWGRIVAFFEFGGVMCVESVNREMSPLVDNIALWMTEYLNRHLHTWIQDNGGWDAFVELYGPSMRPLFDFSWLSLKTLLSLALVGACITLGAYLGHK
Description: This was done by using the FP based competition binding assay (see below).
as §3, with “The preparation of these recombinant Bcl-2 proteins and fluorescently labeled Bak peptide has been detailed previously (see Doshi, J. M.; Tian, D.; Xing, C. J. Med. Chem. 2006, 49, 7731).” left out

caspase-3/-7 = assay: Concentration-dependent activation of caspase-3/-7 / mode of cell death; type: cell-based; conditions: 24 hours treatment; FIG. 2
Description: Compound 1 was further analyzed for its mechanism to inhibit cell growth as HA 14-1 does. This was characterized for concentration-dependent activation of caspase-3/-7. HA 14-1 was run in parallel for comparison. […] Mechanistically, however, compound 1 induced cell death through two different pathways depending on its concentration, similar to HA 14-1. Between 50-100 μM, compound 1 induces apoptosis as characterized by caspase-3/-7 activation. On the other hand, at >100 μM, compound 1 induced non-apoptotic cell death (no activation of caspase-3/-7). The induction of cell death through apoptosis and non-apoptotic process was further supported by DNA fragmentation studies.

[5] = Half-life under varying pH conditions; type: physicochemical; conditions: buffer
[6] = system: Jurkat cells (normal, over-expressing Bcl-2, or over-expressing Bcl-XL); conditions: Jurkat over-expressing Bcl-2 or Bcl-XL; from Doshi et al. J. Med. Chem. 2006; cited from earlier work
[7] = Table 3, mean of two independent experiments with triplicate in each, read-out: Ki ± SEM Bcl-w

Ki (Bcl-w; Table 1, read-out: Ki Bcl-w) [µM]	Ki (Bcl-XL; Table 1, read-out: Ki Bcl-XL) [µM]	decomposition by HPLC [3]	Ki (Bcl-2) [µM]	Ki (Bcl-w; [7]) [µM]	half-life ([5]; pH 6.0) [h]	Ki (Bcl-XL; Table 3, mean of two independent experiments with triplicate in each, read-out: Ki ± SEM Bcl-XL) [µM]	half-life ([5]; pH 7.0) [h]	half-life ([5]; pH 8.0) [h]	SMILES	resistance induced by over-expression of Bcl-2 or Bcl-XL [1]	increase of GI50 after incubation (Jurkat cells [2]) [fold]	cytotoxicity (inhibition of cell growth) compared with HA 14-1 (Jurkat cells [2]; 24 hours treatment, FIG. 2)	potentiation of doxorubicin (Jurkat cells [4]; 30 μM compound, FIG. 5) [fold]	synergism with doxorubicin (Jurkat cells [4])	concentration inducing apoptosis (caspase-3/-7 activation) (caspase-3/-7) [µM]	concentration inducing non-apoptotic cell death (no activation of caspase-3/-7) (caspase-3/-7) [µM]	loss of cytotoxicity after incubation (Jurkat cells [2]) [fold]	resistance induced by over-expression of Bcl-2 or Bcl-XL [6]
686	390	no decomposition was detected	858						CCOC(=O)CC1C(C(=O)OCC)=C(N)Oc2ccc(Br)cc21 (stereo not drawn) [Compound 1, Ethyl-2-amino-6-bromo-4-(2-ethoxy-2-oxoethyl)-4H-chromene-3-carboxylate]	induced no resistance	1.2	less cytotoxic than HA 14-1	1.4	able to synergize doxorubicin	50 to 100	> 100		
				49.4 ± 1.76	2.75	55.4 ± 0.88			CCOC(=O)C1=C(N)Oc2ccc(Br)cc2C1C(C)(C#N)C(=O)OCC (stereo not drawn) [Compound 3, Ethyl-2-amino-6-bromo-4-(2-cyano-1-ethoxy-1-oxopropan-2-yl)-4H-chromene-3-carboxylate]	unable to induce any noticeable resistance							2.5	
59.3 ± 5.3	58.9 ± 5.3		169 ± 18.9	59.3 ± 5.32	2.09		1.86	1.22	CCOC(=O)C1=C(N)Oc2ccc(Br)cc2C1C(C#N)C(=O)OCC (stereo not drawn) [HA 14-1, reference compound]		~35			able to synergize doxorubicin			10	show no resistance
